Values quoted from earlier work, collected in patent US10752566B2, “Solvent compositions for use as replacements for slow evaporating solvents” (TBF ENVIRONMENTAL TECHNOLOGY INC., priority 2015, dated 2020).

Conditions: PCBTF

Q: With `FC(F)(F)c1ccc(Cl)cc1` [PCBTF, para-Chlorobenzotrifluoride] as the molecule, how does the specific gravity read?
A: Its specific gravity is 1.34.
